Assays:
[1] = Antiproliferative activity against human SGC7901 cells assessed as growth inhibition after 72 hrs by MTT assay; type: functional; conditions: SGC-7901, 72 h
[2] = tested on: HCT-116; assay: Antiproliferative activity against human HCT116 cells assessed as growth inhibition after 72 hrs by MTT assay; type: functional; conditions: HCT-116, 72 h
[3] = Antiproliferative activity against human HLF assessed as growth inhibition after 72 hrs by MTT assay; conditions: HLF cells

| GI50 [2] [µM] | Structure (SMILES) | GI50 [1] [µM] | GI50 at 72 h [3] [µM] |
| --- | --- | --- | --- |
| 0.181 | CCCCCCCCCC[C@H](O)COCCOC[C@@H](O)CCCCCCCCCCCCC1=C[C@H](C)OC1=O | 0.076 | 27.8 |
| 16.5 | O[C@H](COCCOC[C@@H](O)Cc1cn(-c2ccc3c(c2)OCCO3)nn1)Cc1ccc(-c2ccccc2)cc1 | 6.4 | 5.2 |
| > 100 | O[C@H](COCCOC[C@@H](O)Cc1cn(-c2cncnc2)nn1)Cc1ccc(-c2ccccc2)cc1 | > 100 | > 100 |
| 33.4 | O[C@H](COCCOC[C@@H](O)Cc1cn(-c2cccs2)nn1)Cc1ccc(-c2ccccc2)cc1 | 33.4 | > 100 |
| 17.8 | O[C@H](COCCOC[C@@H](O)Cc1cn(-c2cncc3ccccc23)nn1)Cc1ccc(-c2ccccc2)cc1 | 29.3 | 10.8 |
| 46.8 | O[C@H](COCCOC[C@@H](O)Cc1cn(-c2cccnc2)nn1)Cc1ccc(-c2ccccc2)cc1 | 29.8 | > 100 |
| 8.3 | O[C@H](COCCOC[C@@H](O)Cc1cn(-c2ccc(N3CCOCC3)cc2)nn1)Cc1ccc(-c2ccccc2)cc1 | 20.7 | > 100 |
| 42.5 | O=C1COc2ccc(-n3cc(C[C@H](O)COCCOC[C@@H](O)Cc4ccc(-c5ccccc5)cc4)nn3)cc2N1 | 15.2 | > 100 |
| 15.5 | O[C@H](COCCOC[C@@H](O)Cc1cn(-c2ccc3[nH]ccc3c2)nn1)Cc1ccc(-c2ccccc2)cc1 | 45.6 | > 100 |
| 9.2 | O=c1[nH]c2ccc(-n3cc(C[C@H](O)COCCOC[C@@H](O)Cc4ccc(-c5ccccc5)cc4)nn3)cc2s1 | 10.5 | 47.7 |
| 3.4 | O[C@H](COCCOC[C@@H](O)Cc1cn(Cc2ccc(Oc3ccccc3)cc2)nn1)Cc1ccc(-c2ccccc2)cc1 | 4.5 | 22.8 |
| 8.8 | N#Cc1ccc(Cn2cc(C[C@H](O)COCCOC[C@@H](O)Cc3ccc(-c4ccccc4)cc3)nn2)cc1 | 7.7 | 36.6 |
| 8.6 | O[C@H](COCCOC[C@@H](O)Cc1cn(Cc2ccc3ccccc3c2)nn1)Cc1ccc(-c2ccccc2)cc1 | 12.1 | 19.8 |
| 7.2 | O[C@H](COCCOC[C@@H](O)Cc1cn(Cc2cccc(-c3ccccc3)c2)nn1)Cc1ccc(-c2ccccc2)cc1 | 10.6 | > 100 |
| 2.5 | O[C@H](COCCOC[C@@H](O)Cc1cn(Cc2ccc(C(F)(F)F)cc2)nn1)Cc1ccc(-c2ccccc2)cc1 | 8.7 | 29.8 |
| > 100 | O[C@H](COCCOC[C@@H](O)Cc1c[nH]nn1)Cc1ccc(-c2ccccc2)cc1 | > 100 | > 100 |
| 0.6 | COC1=C(OC)C(=O)C(CCCCCCCCCCn2cc(C[C@H](O)COCCOC[C@@H](O)Cc3ccc(-c4ccccc4)cc3)nn2)=C(C)C1=O | 3.8 | 18.3 |
| 4 | COC1=C(C)C(=O)C(CCCCCCCCCCn2cc(C[C@H](O)COCCOC[C@@H](O)Cc3ccc(-c4ccccc4)cc3)nn2)=C(C)C1=O | 0.505 | 35.1 |
| 0.9 | CC1=C(C)C(=O)C(CCCCCCCCCCn2cc(C[C@H](O)COCCOC[C@@H](O)Cc3ccc(-c4ccccc4)cc3)nn2)=C(C)C1=O | 0.35 | > 25 |
| 3 | CC1=C(CCCCCCCCCCn2cc(C[C@H](O)COCCOC[C@@H](O)Cc3ccc(-c4ccccc4)cc3)nn2)C(=O)c2ccccc2C1=O | 0.39 | 22.6 |
| 5 | COC1=C(OC)C(=O)C(CCCCCCn2cc(C[C@H](O)COCCOC[C@@H](O)Cc3ccc(-c4ccccc4)cc3)nn2)=C(C)C1=O | 16.6 | > 50 |
| 1.5 | COC1=C(OC)C(=O)C(CCCCCCCCCCCCCCCn2cc(C[C@H](O)COCCOC[C@@H](O)Cc3ccc(-c4ccccc4)cc3)nn2)=C(C)C1=O | 2.49 | > 50 |
| 0.15 | COc1cccc2c1C(=O)c1c(O)c3c(c(O)c1C2=O)C[C@@](O)(C(=O)CO)C[C@@H]3O[C@H]1C[C@H](N)[C@H](O)[C@H](C)O1 [DOXORUBICIN] | 0.55 | 0.33 |

— ChEMBL document CHEMBL3232896, “Biological evaluation of new mimetics of annonaceous acetogenins: alteration of right scaffold by click linkage with aromatic functionalities” (Eur J Med Chem, 2014)
